Results on seven compounds are retold here after patent publication US7989447B2, “1,5 and 3,6-substituted indole compounds having NOS inhibitory activity” (NeurAxon, Inc., priority 2006, dated 2011).

Test [1] has as its target human neuronal constitutive NOS (nNOS) (Homo sapiens, UniProt P29475). The experiment in a line: nNOS (Human) enzyme assay, radiometric conversion of [3H]L-arginine to [3H]L-citrulline. The test is classed as biochemical. The note with it: for Ratio e/n: human eNOS / human nNOS; for IC50: recombinant human enzyme, 37° C., 45 min, read-out: Human nNOS.
Protocol: To measure enzyme inhibition, a 15 μL solution of a test substance was added to the enzyme assay solution, followed by a pre-incubation time of 15 min at RT. […] The total volume of the reaction mixture was 150 μL in every well. The reactions were carried out at 37° C. for 45 min. The reaction was stopped by adding 20 μL of ice-cold buffer containing 100 mM HEPES, 3 mM EGTA, 3 mM EDTA, pH=5.5. [^3H]L-citrulline was separated by DOWEX (ion-exchange resin DOWEX 50 W X 8-400, SIGMA) and the DOWEX was removed by spinning at 12,000 g for 10 min in the centrifuge. […] All assays were performed at least in duplicate. Standard deviations were 10% or less.
Test [2] deals with human endothelial constitutive NOS (eNOS) (Homo sapiens, UniProt P29474). The test is described as follows: eNOS (Human) enzyme assay, radiometric conversion of [3H]L-arginine to [3H]L-citrulline. Particulars: recombinant human enzyme, 37° C., 45 min; read-out: Human eNOS. The test is classed as biochemical. How it is done:
(§1) Recombinant human inducible NOS (iNOS), human endothelial constitutive NOS (eNOS) or human neuronal constitutive NOS(nNOS) were produced in Baculovirus-infected Sf9 cells (ALEXIS). In a radiometric method, NO synthase activity was determined by measuring the conversion of [^3H]L-arginine to [^3H]L-citrulline. To measure iNOS, 10 μL of enzyme was added to 100 μL of 100 mM HEPES, pH=7,4, containing 1 mM CaCl2, 1 mM EDTA, 1 mM dithiotheitol, 1 μM FMN, 1 μM FAD, 10 μM tetrahydrobiopterin, 120 μM NADPH, and 100 nM CaM. To measure eNOS or nNOS, 10 μL of enzyme was added to 100 μL of 40 mM HEPES, pH=7.4, containing 2.4 mM CaCl2, 1 mM MgCl2, 1 mg/mL BSA, 1 mM EDTA, 1 mM dithiothreitol, 1 μM FMN, 1 μM FAD, 10 μM tetrahydrobiopterin, 1 mM NADPH, and 1.2 μM CaM.
(§2) To measure enzyme inhibition, a 15 μL solution of a test substance was added to the enzyme assay solution, followed by a pre-incubation time of 15 min at RT. The reaction was initiated by addition of 20 μL L-arginine containing 0.25 μCi of [^3H]arginine/mL and 24 μM L-arginine. The total volume of the reaction mixture was 150 μL in every well. The reactions were carried out at 37° C. for 45 min. The reaction was stopped by adding 20 μL of ice-cold buffer containing 100 mM HEPES, 3 mM EGTA, 3 mM EDTA, pH=5.5. [^3H]L-citrulline was separated by DOWEX (ion-exchange resin DOWEX 50 W X 8-400, SIGMA) and the DOWEX was removed by spinning at 12,000 g for 10 min in the centrifuge. An 70 μL aliquot of the supernatant was added to 100 μL of scintillation fluid and the samples were counted in a liquid scintillation counter (1450 Microbeta Jet, Wallac). […] All assays were performed at least in duplicate.

Test [3] deals with human inducible NOS (iNOS) (Homo sapiens, UniProt P35228). The experiment in a line: iNOS (Human) enzyme assay, radiometric conversion of [3H]L-arginine to [3H]L-citrulline. The test is classed as biochemical. Particulars: recombinant human enzyme, 37° C., 45 min. Here is the method:
as §1, §2

Test [4] concerns rats after L5/L6 spinal nerve ligation. The experiment in a line: Chung Spinal Nerve Ligation (SNL) model of neuropathic pain, thermal hyperalgesia. Particulars: one dose 10 or 60 mg/kg i.p. In kind it is in vivo, rat. How it is done: The efficacy of compound 107 for the treatment of neuropathic pain was assessed using standard animal models predictive of anti-hyperalgesic and anti-allodynic activity induced by a variety of methods.
The experimental designs for the Chung Spinal Nerve Ligation SNL Model assay for neuropathic pain are depicted in FIG. 1. Nerve ligation injury was performed according to the method described by Kim and Chung (Kim and Chung, Pain 50:355-363, 1992). This technique produces signs of neuropathic dysesthesias, including tactile allodynia, thermal hyperalgesia, and guarding of the affected paw. Rats were anesthetized with halothane and the vertebrae over the L4 to S2 region were exposed. The L5 and L6 spinal nerves were exposed, carefully isolated, and tightly ligated with 4-0 silk suture distal to the DRG. After ensuring homeostatic stability, the wounds were sutured, and the animals allowed to recover in individual cages. Sham-operated rats were prepared in an identical fashion except that the L5/L6 spinal nerves were not ligated. […] After a period of recovery following the surgical intervention, rats show enhanced sensitivity to painful and normally non-painful stimuli.

For test [5], the system named is cardiogenic shock patients. The note with it: randomized trial of 30 patients; reduced from 67%; cited from earlier work.
Test [6] concerns migraine patients. Particulars: single i.v. administration; cited from earlier work.
Test [7] deals with patients with persistent shock. The note with it: up to 30 days, 11 patients with persistent shock; cited from earlier work.
Test [8] deals with migraine patients. Particulars: open pilot study; cited from earlier work.

Chain of human neuronal constitutive NOS (nNOS) (P29475 whole entry): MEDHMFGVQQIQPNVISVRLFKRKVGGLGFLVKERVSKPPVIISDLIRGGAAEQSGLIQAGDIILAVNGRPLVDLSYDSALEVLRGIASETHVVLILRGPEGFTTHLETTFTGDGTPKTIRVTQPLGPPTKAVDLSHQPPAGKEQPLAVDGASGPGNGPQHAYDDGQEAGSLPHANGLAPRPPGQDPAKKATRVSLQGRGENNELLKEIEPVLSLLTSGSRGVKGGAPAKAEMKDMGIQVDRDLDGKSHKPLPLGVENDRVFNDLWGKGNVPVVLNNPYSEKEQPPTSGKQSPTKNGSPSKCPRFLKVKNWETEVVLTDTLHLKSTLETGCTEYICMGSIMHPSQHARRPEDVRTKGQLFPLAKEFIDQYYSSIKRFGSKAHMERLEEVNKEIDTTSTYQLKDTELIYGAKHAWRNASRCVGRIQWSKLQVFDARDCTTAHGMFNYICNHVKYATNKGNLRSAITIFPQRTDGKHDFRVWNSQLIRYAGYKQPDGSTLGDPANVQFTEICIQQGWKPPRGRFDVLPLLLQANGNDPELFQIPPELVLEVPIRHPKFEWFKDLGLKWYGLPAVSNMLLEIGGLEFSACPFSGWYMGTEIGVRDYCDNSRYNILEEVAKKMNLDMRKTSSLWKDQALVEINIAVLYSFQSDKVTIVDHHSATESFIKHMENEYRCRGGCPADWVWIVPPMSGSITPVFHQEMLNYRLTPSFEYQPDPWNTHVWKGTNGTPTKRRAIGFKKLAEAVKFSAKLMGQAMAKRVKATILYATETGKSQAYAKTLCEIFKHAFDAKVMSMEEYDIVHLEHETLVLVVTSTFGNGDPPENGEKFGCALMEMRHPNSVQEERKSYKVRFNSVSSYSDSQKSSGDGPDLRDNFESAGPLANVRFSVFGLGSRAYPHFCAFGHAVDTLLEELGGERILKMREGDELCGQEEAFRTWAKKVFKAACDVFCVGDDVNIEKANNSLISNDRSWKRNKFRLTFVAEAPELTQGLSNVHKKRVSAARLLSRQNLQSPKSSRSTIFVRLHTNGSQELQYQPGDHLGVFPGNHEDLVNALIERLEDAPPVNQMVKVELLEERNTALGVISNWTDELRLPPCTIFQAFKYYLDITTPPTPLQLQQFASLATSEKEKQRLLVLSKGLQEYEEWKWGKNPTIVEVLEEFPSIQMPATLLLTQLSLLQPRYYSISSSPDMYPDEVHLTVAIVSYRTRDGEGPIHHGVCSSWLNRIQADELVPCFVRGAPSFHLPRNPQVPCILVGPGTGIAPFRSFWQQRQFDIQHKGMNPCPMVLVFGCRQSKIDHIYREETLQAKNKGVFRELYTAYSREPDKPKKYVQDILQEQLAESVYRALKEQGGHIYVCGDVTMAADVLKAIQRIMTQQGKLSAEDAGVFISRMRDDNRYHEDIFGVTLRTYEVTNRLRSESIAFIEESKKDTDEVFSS

For `CN1CC=C(c2c[nH]c3cc(NC(=N)c4cccs4)ccc23)CC1` [Compound 107, N-[3-(1-methyl-1,2,3,6-tetrahydro-pyridin-4-yl)-1H-indol-6-yl]-thiophene-2-carboxamidine], the Ratio e/n in test [1] is 26.36. The figures for the IC50 in test [1], in test [2] and in test [3] were 1.1 µM, 29 µM and 12 µM, respectively. For the same compound, the “antihyperalgesic effect (reversal of thermal hyperalgesia)” value in test [4] is “clear antihyperalgesic effect”.
Consider `CCNC1CCC(c2c[nH]c3cc(NC(=N)c4cccs4)ccc23)CC1` (stereo not drawn) [Compound 129], for which the Ratio e/n in test [1] was found to be 57.08. Moreover, the IC50 in test [1] came out at 0.26 µM; in test [2], 14.9 µM; in test [3] it was 4.2 µM.
Consider `CCNC1CC=C(c2c[nH]c3cc(NC(=N)c4cccs4)ccc23)CC1` (stereo not drawn) [Compound 132, N-(3-(4-(Ethylamino)cyclohex-1-enyl)-1H-indol-6-yl)thiophene-2-carboximidamide], for which the Ratio e/n in test [1] came out at 23.83. In addition, the IC50 in test [1] was found to be 0.73 µM; in test [2], 17.4 µM; in test [3], 1.93 µM.
For `CCCN[C@H]1CC[C@@H](c2c[nH]c3cc(NC(=N)c4cccs4)ccc32)CC1` [Compound 137, N-(3-((1s,4s)-4-(propylamino)cyclohexyl)-1H-indol-6-yl)thiophene-2-carboximidamide], in that order: 27.02, 0.2 µM, 5.54 µM and 8.26 µM.
Regarding `COC(=O)[C@@H](N)CCCNC(=N)N[N+](=O)[O-]` [L-NAME], the patient mortality in test [5] is 27%.
For `CN=C(N)NCCC[C@H](N)C(=O)O.Cl` [L-NMMA, L-N^G methylarginine hydrochloride], the response rate in test [6] is reported as 67%. Moreover, the survival rate in test [7] is 72%.
For `C/C1=C2/[N-][C@H]([C@H](CC(N)=O)[C@@]2(C)CCC(=O)NC[C@@H](C)OP(=O)([O-])O[C@H]2[C@@H](O)[C@@H](n3cnc4cc(C)c(C)cc43)O[C@@H]2CO)[C@]2(C)N=C(/C(C)=C3N=C(/C=C4N=C1[C@@H](CCC(N)=O)C\4(C)C)[C@@H](CCC(N)=O)[C@]\3(C)CC(N)=O)[C@@H](CCC(N)=O)[C@]2(C)CC(N)=O.[Co+3].[OH-]` [hydroxycobalamin], the “patients with a 50% reduction in the frequency of migraine attack” value in test [8] is reported as 53%.
